We go through 18 compounds from patent US9266878B2, “Phosphatidylinositol 3-kinase inhibitors” (Gilead Calistoga LLC, priority 2012, dated 2016).

Usually IC50 stands for the concentration at which inhibition is half-maximal.

Holding throughout (test): Enzymatic activity of PI3K isoforms, TR-FRET assay (PIP3 formation)
Assay type in all cases: biochemical
A general note: TR-FRET usually uses a lanthanide donor and a delayed reading to cut background.

For one experiment, the target named is PI3Kα (Homo sapiens (Human), UniProt P42336). Conditions: bound given in uM. As for the experimental part:
(§1) Enzymatic activity of the class I PI3K isoforms was measured using a time-resolved fluorescence resonance energy transfer (TR-FRET) assay that monitors formation of the product 3,4,5-inositol triphosphate molecule (PIP3), as it competes with fluorescently labeled PIP3 for binding to the GRP-1 pleckstrin homology domain protein. An increase in […] product results in a decrease in TR-FRET signal as the labeled fluorophore is displaced from the GRP-1 protein binding site.
(§2) Class I PI3K isoforms were expressed and purified as heterodimeric recombinant proteins. All assay reagents and buffers for the TR-FRET assay were purchased from Millipore. […] After an assay reaction time of 30 minutes at 25° C., reactions were terminated with a final concentration of 10 mM EDTA, 10 nM labeled-PIP3, and 35 nM Europium labeled GRP-1 detector protein before reading TR-FRET on an Envision plate reader (Ex: 340 nm; Em: 615/665 nm; 100 μs delay and 500 μs read window).
(§3) IC50 are reported in units of nM. These assays generally produced results within 3-fold of the reported mean.

For another experiment, the target named is PI3Kδ (Homo sapiens (Human), UniProt O00329). The following applies: bound given in nM. As for the experimental part: as §1, §2, §3
Another experiment has as its target PI3Kγ (Homo sapiens (Human), UniProt P48736). On the procedure: as §1
Class I PI3K isoforms were expressed and purified as heterodimeric recombinant proteins. All assay reagents and buffers for the TR-FRET assay were purchased from Millipore.
IC50 are reported in units of nM.

Sequence of PI3Kγ (P48736 whole entry, canonical isoform): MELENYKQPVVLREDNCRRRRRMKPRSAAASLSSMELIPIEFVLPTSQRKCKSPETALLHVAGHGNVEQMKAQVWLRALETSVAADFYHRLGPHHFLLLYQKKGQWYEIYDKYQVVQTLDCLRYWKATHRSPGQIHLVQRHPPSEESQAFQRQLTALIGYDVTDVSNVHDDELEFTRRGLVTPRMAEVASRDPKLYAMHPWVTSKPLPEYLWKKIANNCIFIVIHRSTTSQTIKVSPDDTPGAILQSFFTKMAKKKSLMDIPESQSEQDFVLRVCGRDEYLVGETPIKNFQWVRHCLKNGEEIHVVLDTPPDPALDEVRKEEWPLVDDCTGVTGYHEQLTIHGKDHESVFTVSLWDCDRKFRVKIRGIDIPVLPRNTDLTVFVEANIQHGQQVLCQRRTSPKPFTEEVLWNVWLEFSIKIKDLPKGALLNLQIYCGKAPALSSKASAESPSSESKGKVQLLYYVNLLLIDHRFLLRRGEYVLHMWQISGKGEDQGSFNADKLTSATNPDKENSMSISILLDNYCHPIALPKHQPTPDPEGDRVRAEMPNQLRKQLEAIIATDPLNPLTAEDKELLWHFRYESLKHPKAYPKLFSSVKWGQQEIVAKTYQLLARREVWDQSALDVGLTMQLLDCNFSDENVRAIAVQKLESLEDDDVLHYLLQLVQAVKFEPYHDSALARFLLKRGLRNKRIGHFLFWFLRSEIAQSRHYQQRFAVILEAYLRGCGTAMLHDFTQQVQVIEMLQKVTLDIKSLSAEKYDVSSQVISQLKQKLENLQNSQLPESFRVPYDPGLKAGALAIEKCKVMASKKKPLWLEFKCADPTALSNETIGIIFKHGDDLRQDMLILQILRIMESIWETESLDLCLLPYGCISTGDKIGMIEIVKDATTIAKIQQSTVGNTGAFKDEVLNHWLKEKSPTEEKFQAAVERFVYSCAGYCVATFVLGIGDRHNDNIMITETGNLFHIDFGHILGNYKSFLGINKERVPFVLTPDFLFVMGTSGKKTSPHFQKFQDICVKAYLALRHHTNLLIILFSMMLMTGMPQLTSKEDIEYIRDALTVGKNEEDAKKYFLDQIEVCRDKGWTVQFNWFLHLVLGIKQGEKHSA
Sequence of PI3Kγ (Q8WYR1 whole entry partner, canonical isoform): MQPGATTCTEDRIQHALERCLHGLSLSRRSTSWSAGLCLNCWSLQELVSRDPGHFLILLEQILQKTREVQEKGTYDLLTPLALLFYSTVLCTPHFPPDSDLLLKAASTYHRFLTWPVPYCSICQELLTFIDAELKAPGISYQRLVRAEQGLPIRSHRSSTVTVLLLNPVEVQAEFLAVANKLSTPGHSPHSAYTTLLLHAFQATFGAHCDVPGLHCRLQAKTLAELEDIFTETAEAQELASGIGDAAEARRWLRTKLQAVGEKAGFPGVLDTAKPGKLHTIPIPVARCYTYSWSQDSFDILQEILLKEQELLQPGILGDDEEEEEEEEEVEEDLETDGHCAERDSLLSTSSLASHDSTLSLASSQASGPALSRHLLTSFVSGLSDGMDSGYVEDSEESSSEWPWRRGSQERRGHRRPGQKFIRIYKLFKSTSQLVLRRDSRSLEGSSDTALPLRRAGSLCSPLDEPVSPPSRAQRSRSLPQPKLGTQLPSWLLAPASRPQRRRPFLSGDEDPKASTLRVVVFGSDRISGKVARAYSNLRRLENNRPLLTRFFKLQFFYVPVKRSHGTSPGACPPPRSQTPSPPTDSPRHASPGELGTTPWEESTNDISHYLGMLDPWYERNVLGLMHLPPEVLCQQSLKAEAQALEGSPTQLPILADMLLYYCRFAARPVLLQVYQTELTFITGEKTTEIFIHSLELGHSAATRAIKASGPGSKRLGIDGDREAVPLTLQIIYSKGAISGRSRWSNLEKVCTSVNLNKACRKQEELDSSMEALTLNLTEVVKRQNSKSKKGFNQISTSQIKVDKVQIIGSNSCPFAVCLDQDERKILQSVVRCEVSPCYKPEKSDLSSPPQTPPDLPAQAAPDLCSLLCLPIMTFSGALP
Sequence of PI3Kα (P42336 whole entry, the tested form may be a part, canonical isoform): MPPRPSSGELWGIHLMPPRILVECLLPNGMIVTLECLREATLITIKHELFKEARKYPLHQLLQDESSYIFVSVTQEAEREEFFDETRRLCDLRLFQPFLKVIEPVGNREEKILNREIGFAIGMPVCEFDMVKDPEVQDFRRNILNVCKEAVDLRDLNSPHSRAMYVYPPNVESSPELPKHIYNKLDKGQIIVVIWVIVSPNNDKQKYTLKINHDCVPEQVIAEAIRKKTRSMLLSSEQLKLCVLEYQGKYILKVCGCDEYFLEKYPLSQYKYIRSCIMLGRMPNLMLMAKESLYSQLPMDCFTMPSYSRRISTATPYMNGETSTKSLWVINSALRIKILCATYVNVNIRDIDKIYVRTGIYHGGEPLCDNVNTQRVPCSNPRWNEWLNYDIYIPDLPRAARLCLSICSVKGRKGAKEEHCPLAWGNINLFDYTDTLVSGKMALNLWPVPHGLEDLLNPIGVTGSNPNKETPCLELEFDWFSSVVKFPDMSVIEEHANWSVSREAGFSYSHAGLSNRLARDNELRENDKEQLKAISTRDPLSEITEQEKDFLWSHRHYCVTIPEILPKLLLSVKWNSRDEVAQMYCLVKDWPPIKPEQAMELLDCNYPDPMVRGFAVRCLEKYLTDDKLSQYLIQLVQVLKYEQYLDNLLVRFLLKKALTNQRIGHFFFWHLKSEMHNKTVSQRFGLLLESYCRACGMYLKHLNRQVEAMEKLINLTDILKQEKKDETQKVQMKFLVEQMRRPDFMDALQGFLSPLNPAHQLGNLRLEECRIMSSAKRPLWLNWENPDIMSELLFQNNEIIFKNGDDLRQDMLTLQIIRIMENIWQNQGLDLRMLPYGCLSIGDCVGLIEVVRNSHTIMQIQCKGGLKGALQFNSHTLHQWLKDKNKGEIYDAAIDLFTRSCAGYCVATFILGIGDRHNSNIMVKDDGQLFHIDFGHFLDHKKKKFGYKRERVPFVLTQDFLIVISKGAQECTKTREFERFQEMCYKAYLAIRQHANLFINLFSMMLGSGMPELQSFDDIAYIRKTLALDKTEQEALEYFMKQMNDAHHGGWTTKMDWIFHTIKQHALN
Sequence of PI3Kα (P27986 whole entry partner, the tested form may be a part, canonical isoform): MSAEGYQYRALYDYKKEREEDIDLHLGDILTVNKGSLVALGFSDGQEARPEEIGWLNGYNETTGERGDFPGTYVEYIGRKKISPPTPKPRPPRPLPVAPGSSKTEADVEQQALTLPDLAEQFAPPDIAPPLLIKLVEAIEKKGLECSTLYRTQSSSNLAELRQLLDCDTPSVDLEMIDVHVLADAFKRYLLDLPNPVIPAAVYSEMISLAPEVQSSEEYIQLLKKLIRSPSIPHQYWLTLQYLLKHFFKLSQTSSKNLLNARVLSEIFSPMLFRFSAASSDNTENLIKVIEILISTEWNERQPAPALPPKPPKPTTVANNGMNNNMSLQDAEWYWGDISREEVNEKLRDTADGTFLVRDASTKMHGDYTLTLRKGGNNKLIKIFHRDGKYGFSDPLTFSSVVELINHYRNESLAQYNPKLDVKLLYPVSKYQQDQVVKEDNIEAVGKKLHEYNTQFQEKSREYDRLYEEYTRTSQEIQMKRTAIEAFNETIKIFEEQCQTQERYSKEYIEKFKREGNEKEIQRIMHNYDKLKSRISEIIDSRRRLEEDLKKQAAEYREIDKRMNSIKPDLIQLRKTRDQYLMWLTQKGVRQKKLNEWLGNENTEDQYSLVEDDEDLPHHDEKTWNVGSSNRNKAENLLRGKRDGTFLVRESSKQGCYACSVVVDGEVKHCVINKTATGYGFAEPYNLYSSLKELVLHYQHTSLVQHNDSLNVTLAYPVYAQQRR
Sequence of PI3Kδ (O00329 whole entry): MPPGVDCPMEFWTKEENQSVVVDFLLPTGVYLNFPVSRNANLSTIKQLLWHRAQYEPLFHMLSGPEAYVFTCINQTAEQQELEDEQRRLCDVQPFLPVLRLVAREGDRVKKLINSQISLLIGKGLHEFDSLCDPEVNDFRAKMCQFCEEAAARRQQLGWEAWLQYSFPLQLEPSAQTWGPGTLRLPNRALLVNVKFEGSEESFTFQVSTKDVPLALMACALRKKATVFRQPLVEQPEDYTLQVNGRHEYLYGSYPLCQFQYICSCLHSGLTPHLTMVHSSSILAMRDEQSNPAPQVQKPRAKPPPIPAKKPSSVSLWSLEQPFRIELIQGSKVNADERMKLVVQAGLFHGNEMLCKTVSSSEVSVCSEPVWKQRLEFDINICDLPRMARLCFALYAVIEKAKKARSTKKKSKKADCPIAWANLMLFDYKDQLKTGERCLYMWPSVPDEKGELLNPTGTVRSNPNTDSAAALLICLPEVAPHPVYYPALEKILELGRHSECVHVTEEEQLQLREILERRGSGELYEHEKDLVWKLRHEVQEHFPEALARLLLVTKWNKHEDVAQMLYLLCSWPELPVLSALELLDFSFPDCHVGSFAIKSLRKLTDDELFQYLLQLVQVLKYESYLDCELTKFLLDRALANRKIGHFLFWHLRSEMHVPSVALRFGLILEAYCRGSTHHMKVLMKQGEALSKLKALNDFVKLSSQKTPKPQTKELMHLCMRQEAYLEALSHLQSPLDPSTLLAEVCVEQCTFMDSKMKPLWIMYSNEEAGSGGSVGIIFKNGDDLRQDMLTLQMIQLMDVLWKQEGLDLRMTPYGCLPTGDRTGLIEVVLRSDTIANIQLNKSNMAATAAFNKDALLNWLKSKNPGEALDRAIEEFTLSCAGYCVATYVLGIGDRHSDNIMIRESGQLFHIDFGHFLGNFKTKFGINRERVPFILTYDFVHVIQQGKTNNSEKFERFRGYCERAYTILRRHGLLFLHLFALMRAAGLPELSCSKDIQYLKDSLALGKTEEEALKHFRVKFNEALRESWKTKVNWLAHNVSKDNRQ
Sequence of PI3Kδ (P27986 whole entry partner): as the sequence (P27986 whole entry partner, the tested form may be a part, canonical isoform) above

For the compound `Nc1ncnc(N[C@H](CO)c2nc3cccc(Cl)c3c(=O)n2-c2ccccc2)c1C#Cc1ccc(F)cn1` [139b], the half-inhibitory concentration (IC50) at PI3Kα is over 1 µM; at PI3Kδ, under 100 nM; on PI3Kγ (bound given in uM), over 1 µM.
Turning to `Cc1cccc2nc([C@H](C)Nc3ncnc(N)c3C#Cc3cnccn3)n(-c3cccc(F)c3)c(=O)c12` [Compound 106a, (S)-2-(1-((6-amino-5-(pyrazin-2-ylethynyl)pyrimidin-4-yl)amino)ethyl)-3-(3-fluorophenyl)-5-methylquinazolin-4(3H)-one], the IC50 against PI3Kα is over 1 µM; against PI3Kδ, under 100 nM; against PI3Kγ (bound given in uM) it was over 1 µM.
As for `Cc1cccc2nc([C@H](C)Nc3ncnc(N)c3C#Cc3cnccn3)n(-c3cccnc3)c(=O)c12` [Compound 119a, (S)-2-(1-((6-amino-5-(pyrazin-2-ylethynyl)pyrimidin-4-yl)amino)ethyl)-5-methyl-3-(pyridin-3-yl)quinazolin-4(3H)-one], the IC50 is over 1 µM against PI3Kα, under 100 nM on PI3Kδ and over 1 µM against PI3Kγ (bound given in uM).
With `C[C@H](Nc1ncnc(N)c1C#Cc1ccc(F)cn1)c1nc2cccc(Cl)c2c(=O)n1N1CCOCC1` [Compound 121a, (S)-2-(1-((6-amino-5-((5-fluoropyridin-2-yl)ethynyl)pyrimidin-4-yl)amino)ethyl)-5-chloro-3-morpholinoquinazolin-4(3H)-one], the IC50 against PI3Kα was over 1 µM; on PI3Kδ it was under 100 nM; against PI3Kγ (bound given in uM), over 1 µM.
As to `CC(=O)c1cccnc1C#Cc1c(N)ncnc1N[C@@H](C)c1nc2cccc(Cl)c2c(=O)n1-c1ccccc1` [Compound 152a, (S)-2-(1-((5-((3-acetylpyridin-2-yl)ethynyl)-6-aminopyrimidin-4-yl)amino)ethyl)-5-chloro-3-phenylquinazolin-4(3H)-one], the 50% inhibitory concentration (IC50) is over 1 µM at PI3Kα, under 100 nM against PI3Kδ and over 1 µM at PI3Kγ (bound given in uM).
Turning to `C[C@H](Nc1ncnc(N)c1C#Cc1ccc(F)cn1)c1nc2c(F)cccc2c(=O)n1-c1ccccc1` [Compound 13a, (S)-2-(1-(6-amino-5-((5-fluoropyridin-2-yl)ethynyl)pyrimidin-4-ylamino)ethyl)-8-fluoro-3-phenylquinazolin-4(3H)-one], the IC50 on PI3Kα is over 1 µM; at PI3Kδ, under 100 nM; against PI3Kγ (bound given in uM), over 1 µM.
Take `Cc1ccc(F)c2c(=O)n(-c3ccccc3)c([C@H](C)Nc3ncnc(N)c3C#Cc3ccc(F)cn3)nc12` [Compound 69a, (S)-2-(1-((6-amino-5-((5-fluoropyridin-2-yl)ethynyl)pyrimidin-4-yl)amino)ethyl)-5-fluoro-8-methyl-3-phenylquinazolin-4(3H)-one]: the figures for the concentration for half-maximal inhibition (IC50) on PI3Kα, on PI3Kδ and at PI3Kγ (bound given in uM) were over 1 µM, under 100 nM and over 1 µM, respectively.
For the compound `C[C@H](Nc1ncnc(N)c1C#Cc1ccc(F)cn1)c1nc2c(Cl)ccc(Cl)c2c(=O)n1-c1ccccc1` [Compound 11a, (S)-2-(1-(6-amino-5-((5-fluoropyridin-2-yl)ethynyl)pyrimidin-4-ylamino)ethyl)-5,8-dichloro-3-phenylquinazolin-4(3H)-one], the concentration for half-maximal inhibition (IC50) against PI3Kα was over 1 µM; at PI3Kδ it was under 100 nM; at PI3Kγ (bound given in uM), over 1 µM.
As for `Cc1ccc(F)c2nc([C@H](C)Nc3ncnc(N)c3C#Cc3cnccn3)n(-c3cccc(C#N)c3)c(=O)c12` [Compound 73a, (S)-3-(2-(1-((6-amino-5-(pyrazin-2-ylethynyl)pyrimidin-4-yl)amino)ethyl)-8-fluoro-5-methyl-4-oxoquinazolin-3(4H)-yl)benzonitrile], the values for the half-maximal inhibitory concentration (IC50) at PI3Kα, against PI3Kδ and against PI3Kγ (bound given in uM) were over 1 µM, under 100 nM and over 1 µM, respectively.
`C[C@H](Nc1ncnc(N)c1C#Cc1cccc(CO)c1)c1nc2cccc(Cl)c2c(=O)n1-c1ccccc1` [Compound 162a, (S)-2-(1-((6-amino-5-((3-(hydroxymethyl)phenyl)ethynyl)pyrimidin-4-yl)amino)ethyl)-5-chloro-3-phenylquinazolin-4(3H)-one]: the IC50 against PI3Kα was over 1 µM; against PI3Kδ it was under 100 nM; on PI3Kγ (bound given in uM), over 1 µM.
As for `CCc1ccnc(C#Cc2c(N)ncnc2N[C@@H](C)c2nc3cccc(Cl)c3c(=O)n2-c2ccccc2)c1` [Compound 150a, (S)-2-(1-((6-amino-5-((4-ethylpyridin-2-yl)ethynyl)pyrimidin-4-yl)amino)ethyl)-5-chloro-3-phenylquinazolin-4(3H)-one], the IC50 against PI3Kα was over 1 µM; against PI3Kδ, under 100 nM; on PI3Kγ (bound given in nM), under 0.1 µM.
With `C[C@H](Nc1ncnc(N)c1C#Cc1ccc(F)cn1)c1nc2c(F)ccc(F)c2c(=O)n1-c1ccccc1` [Compound 4a, (S)-2-(1-(6-amino-5-((5-fluoropyridin-2-yl)ethynyl)pyrimidin-4-ylamino)ethyl)-5,8-difluoro-3-phenylquinazolin-4(3H)-one], the IC50 against PI3Kα is over 1 µM; against PI3Kδ, under 100 nM; at PI3Kγ (bound given in uM) it was over 1 µM.
Turning to `C[C@H](Nc1ncnc(N)c1C#Cc1cnccn1)c1nc2ccc(F)cc2c(=O)n1-c1ccccc1` [Compound 91a, (S)-2-(1-((6-amino-5-(pyrazin-2-ylethynyl)pyrimidin-4-yl)amino)ethyl)-6-fluoro-3-phenylquinazolin-4(3H)-one], the IC50 is over 1 µM on PI3Kα, under 100 nM on PI3Kδ and over 1 µM at PI3Kγ (bound given in uM).
`Cc1ccc(C#Cc2c(N)ncnc2N[C@@H](C)c2nc3cccc(Cl)c3c(=O)n2-c2ccccc2)nc1` [Compound 133a, (S)-2-(1-((6-amino-5-((5-methylpyridin-2-yl)ethynyl)pyrimidin-4-yl)amino)ethyl)-5-chloro-3-phenylquinazolin-4(3H)-one]: the IC50 against PI3Kα was over 1 µM; on PI3Kδ, under 100 nM; against PI3Kγ (bound given in nM), under 0.1 µM.
Regarding `COc1cc(F)cc(C#Cc2c(N)ncnc2N[C@@H](C)c2nc3cccc(Cl)c3c(=O)n2N2CCOCC2)c1` [Compound 122a, (S)-2-(1-((6-amino-5-((3-fluoro-5-methoxyphenyl)ethynyl)pyrimidin-4-yl)amino)ethyl)-5-chloro-3-morpholinoquinazolin-4(3H)-one], the values for the half-maximal inhibitory concentration (IC50) at PI3Kα, on PI3Kδ and at PI3Kγ (bound given in uM) were over 1 µM, under 100 nM and over 1 µM, respectively.
For `COC(=O)c1ccnc(C#Cc2c(N)ncnc2N[C@@H](C)c2nc3cccc(Cl)c3c(=O)n2-c2ccccc2)c1` [Compound 158a, (S)-methyl 2-((4-amino-6-((1-(5-chloro-4-oxo-3-phenyl-3,4-dihydroquinazolin-2-yl)ethyl)amino)pyrimidin-5-yl)ethynyl)isonicotinate], the half-inhibitory concentration (IC50) at PI3Kα is over 1 µM; on PI3Kδ, under 100 nM; against PI3Kγ (bound given in uM) it was over 1 µM.
As for `C[C@H](Nc1ncnc(N)c1C#Cc1ccccc1)c1nc2cccc(F)c2c(=O)n1-c1cccnc1` [Compound 116a, (S)-2-(1-((6-amino-5-(phenylethynyl)pyrimidin-4-yl)amino)ethyl)-5-fluoro-3-(pyridin-3-yl)quinazolin-4(3H)-one], the IC50 was under 100 nM at PI3Kδ and over 1 µM at PI3Kγ (bound given in uM).
In the case of `C[C@H](Nc1ncnc(N)c1C#Cc1cnc(N)cc1C(F)(F)F)c1nc2cccc(Cl)c2c(=O)n1-c1cc(F)cc(F)c1` [Compound 17a, (S)-2-(1-(6-amino-5-((6-amino-4-(trifluoromethyl)pyridin-3-yl)ethynyl)pyrimidin-4-ylamino)ethyl)-5-chloro-3-(3,5-difluorophenyl)quinazolin-4(3H)-one], the IC50 against PI3Kδ is under 100 nM; on PI3Kγ (bound given in nM) it was under 0.1 µM.
